The numbers were not newly measured in publication PMC3720659, “Integrated Analysis of Drug-Induced Gene Expression Profiles Predicts Novel hERG Inhibitors” (PLoS ONE, 2013), which cites them from elsewhere.

For the data set, the system named is hERG current. The conditions noted are these: cited from earlier work.
Setting [1] is: hERG annotation of the drug, the Cell Line (HL60, MCF7, PC3) names the expression profile, not the hERG test.
Setting [2] is: hERG inhibition annotation of the drug, the Cell Line (HL60, MCF7, PC3) is the cell line of the expression profile, not of the hERG test.
[3] abbreviates: annotation of the drug, Cell Line (HL60, MCF7, PC3) is the cell line of the drug-induced expression profile, not of the hERG assay, ref hERGcentral.

Where two headings read alike, the source gives them in different places.

As to `COc1ccc2cc1Oc1ccc(cc1)C[C@H]1c3cc(c(OC)cc3CCN1C)Oc1c(OC)c(OC)cc3c1[C@H](C2)N(C)CC3` [tetrandrine], the “Annotation (hERG inhibition class, Active/Inactive by IC50)” value was “Inactive”.

For the compound `Clc1ccccc1C(c1ccccc1)(c1ccccc1)n1ccnc1` [clotrimazole], under setting [1], the “Annotation (hERG Active / Inactive)” value was “Inactive”.

On to `C[C@]12CC[C@H](O)C[C@H]1CC[C@@H]1[C@@H]2CC[C@]2(C)[C@@H](C3=CC(=O)OC3)CC[C@]12O` [digitoxigenin], for which the “Annotation (hERG Active / Inactive)” value under setting [1] is recorded as “Inactive”.

As to `NC(=NCc1ccccc1)NC(=O)c1nc(Cl)c(N)nc1N` [benzamil], under setting [1], the “Annotation (hERG Active / Inactive)” value was “Active”.

`CC(=O)N[C@@H](CC(=O)O)C(=O)O` [N-acetyl-L-aspartic acid]: under setting [1], the “Annotation (hERG Active / Inactive)” value is “Inactive”.

For `COC(=O)C1=CCCN(C)C1` [arecoline], the “Annotation (hERG Active / Inactive)” value under setting [1] is given as “Inactive”.

For the compound `Cc1cccc(Nc2ccccc2C(=O)O)c1C` [mefenamic acid], the “Annotation (hERG Active / Inactive)” value under setting [2] is recorded as “Inactive”.

As for `Cc1ccsc1/C=C/C1=NCCCN1C` [morantel], the “Annotation (hERG Active / Inactive)” value under setting [2] is listed as “Inactive”.

With `C[N+]12CCC(CC1)C(OC(=O)C(O)(c1ccccc1)c1ccccc1)C2` (centres unmarked) [clidinium bromide], under setting [1], the “Annotation (hERG Active / Inactive)” value is reported as “Inactive”.

With `CCC1(c2cccc(O)c2)CCCCN(C)C1` (centres unmarked) [meptazinol], the “Annotation (hERG Active / Inactive)” value under setting [2] is listed as “Inactive”.

As for rifabutin, under setting [3], the “Annotation (hERG inhibition class, Active/Inactive by IC50)” value is recorded as “Inactive”.

On to `COc1cc2c(c(OC)c1OC)-c1ccc(OC)c(=O)cc1[C@@H](NC(C)=O)CC2` [colchicine], for which, under setting [1], the “Annotation (hERG Active / Inactive)” value is listed as “Inactive”.

As to `NS(=O)(=O)c1cc2c(cc1Cl)NCNS2(=O)=O` [hydrochlorothiazide], the “Annotation (hERG Active / Inactive)” value under setting [2] is listed as “Inactive”.

`CCC1=C(C)CN(C(=O)NCCc2ccc(S(=O)(=O)NC(=O)N[C@H]3CC[C@H](C)CC3)cc2)C1=O` [glimepiride]: the “Annotation (hERG Active / Inactive)” value was “Inactive”.

On to `CC(C)(C)NCC(O)COc1cccc2c1CC(O)C(O)C2` (centres unmarked) [nadolol], for which the “Annotation (hERG Active / Inactive)” value under setting [2] is listed as “Inactive”.

Take `O=P1(NCCCl)OCCCN1CCCl` (centres unmarked) [ifosfamide]: the “Annotation (hERG Active / Inactive)” value under setting [2] was “Inactive”.

Consider `O=C1CN(/N=C/c2ccc(-c3ccc([N+](=O)[O-])cc3)o2)C(O)=N1` [dantrolene], for which the “Annotation (hERG Active / Inactive)” value under setting [1] was “Inactive”.

With `COc1ccc(C(=O)OC2C[C@H]3CC[C@H](C2)N3C)cc1OC` (some centres unmarked) [convolamine], the “Annotation (hERG Active / Inactive)” value under setting [1] is reported as “Inactive”.

Turning to `Cc1ccc(C(=O)c2ccc(CC(=O)O)n2C)cc1` [tolmetin], the “Annotation (hERG inhibition class, Active/Inactive by IC50)” value is reported as “Inactive”.

Take `N[C@@H](C(=O)N[C@@H]1C(=O)N2C(C(=O)O)=C(Cl)CS[C@H]12)c1ccccc1` [cefaclor]: the “Annotation (hERG Active / Inactive)” value under setting [1] is recorded as “Inactive”.

`c1cnc(N2CCN(Cc3ccc4c(c3)OCO4)CC2)nc1` [piribedil]: under setting [2], the “Annotation (hERG Active / Inactive)” value is recorded as “Inactive”.

`CCOC(=O)O[C@]1(C(=O)COC(=O)CC)CC[C@H]2[C@@H]3CCC4=CC(=O)C=C[C@]4(C)[C@H]3[C@@H](O)C[C@@]21C` [prednicarbate]: the “Annotation (hERG Active / Inactive)” value under setting [2] is recorded as “Inactive”.

On to felodipine, for which the “Annotation (hERG Active / Inactive)” value under setting [1] is listed as “Inactive”.

Turning to `CC1=CC(=O)c2ccccc2C1=O` [menadione], the “Annotation (hERG Active / Inactive)” value under setting [2] is listed as “Inactive”.

`NCc1ccc(S(N)(=O)=O)cc1` [mafenide]: the “Annotation (hERG Active / Inactive)” value under setting [2] is “Inactive”.

In the case of `COc1c2c(cc3c1OCO3)CCN(C)C2` [hydrocotarnine], the “Annotation (hERG Active / Inactive)” value under setting [2] is reported as “Inactive”.

On to `CCC(Cc1c(I)cc(I)c(N)c1I)C(=O)O` (centres unmarked) [iopanoic acid], for which, under setting [2], the “Annotation (hERG Active / Inactive)” value is reported as “Inactive”.

Regarding minocycline, the “Annotation (hERG Active / Inactive)” value under setting [2] is “Inactive”.

As to `CCn1nc(C(=O)O)c(=O)c2cc3c(cc21)OCO3` [cinoxacin], the “Annotation (hERG Active / Inactive)” value under setting [1] was “Inactive”.

As to `O=C1CCC(N2C(=O)c3ccccc3C2=O)C(=O)N1` (centres unmarked) [thalidomide], the “Annotation (hERG inhibition class, Active/Inactive by IC50)” value under setting [3] is recorded as “Inactive”.

As for `Cc1scc2c1N(C(=O)CN1CCN(C)CC1)c1ccccc1NC2=O` [telenzepine], the “Annotation (hERG inhibition class, Active/Inactive by IC50)” value under setting [3] was “Inactive”.

For `C=CC1=C(C(=O)O)N2C(=O)[C@@H](NC(=O)/C(=N\OCC(=O)O)c3csc(N)n3)[C@H]2SC1` [cefixime], the “Annotation (hERG Active / Inactive)” value under setting [1] was “Inactive”.

Consider `CC(=O)c1ccc(S(=O)(=O)NC(=O)NC2CCCCC2)cc1` [acetohexamide], for which the “Annotation (hERG Active / Inactive)” value under setting [1] is recorded as “Inactive”.

As for `CN1CCC(=C2c3ccccc3CC(=O)c3sccc32)CC1` [ketotifen], the “Annotation (hERG Active / Inactive)” value under setting [2] is on record as “Inactive”.

With `O=C1CC2(CCCC2)CC(=O)N1CCCCN1CCN(c2ncccn2)CC1` [buspirone], under setting [1], the “Annotation (hERG Active / Inactive)” value was “Inactive”.

For `C=C1C(=O)O[C@H]2[C@H]1CC/C(C)=C/CC[C@@]1(C)O[C@@H]21` [parthenolide], under setting [2], the “Annotation (hERG Active / Inactive)” value was “Inactive”.

For `CC(C)NCC1CCc2cc(CO)c([N+](=O)[O-])cc2N1` (centres unmarked) [oxamniquine], the “Annotation (hERG Active / Inactive)” value is given as “Inactive”.

For the compound `CN(C)CCOC(=O)COc1ccc(Cl)cc1` [meclofenoxate], the “Annotation (hERG Active / Inactive)” value under setting [2] is listed as “Inactive”.

On to `CN(C)CCCN1c2ccccc2Sc2ccc(Cl)cc21` [chlorpromazine], for which the “Annotation (hERG Active / Inactive)” value under setting [1] is “Active”.

As for `CC(=O)Nc1ccc(OCC(O)CNC(C)C)cc1` (centres unmarked) [practolol], under setting [2], the “Annotation (hERG Active / Inactive)” value was “Inactive”.

Take `COc1cc2nc(N3CCN(C(=O)c4ccco4)CC3)nc(N)c2cc1OC` [prazosin]: the “Annotation (hERG Active / Inactive)” value under setting [2] is given as “Inactive”.

Regarding `COc1c(O[C@@H]2O[C@H](CO)[C@@H](O)[C@H](O)[C@H]2O)cc2c(c1OC)-c1ccc(SC)c(=O)cc1[C@@H](NC(C)=O)CC2` [thiocolchicoside], the “Annotation (hERG inhibition class, Active/Inactive by IC50)” value under setting [3] is recorded as “Inactive”.

Regarding `CC1(C)NC(=O)N(c2ccc([N+](=O)[O-])c(C(F)(F)F)c2)C1=O` [nilutamide], under setting [2], the “Annotation (hERG Active / Inactive)” value is “Inactive”.

Take `CCN1CCC[C@H]1CNC(=O)c1c(OC)ccc(Br)c1OC` [remoxipride]: the “Annotation (hERG inhibition class, Active/Inactive by IC50)” value under setting [3] is on record as “Inactive”.

Consider `Clc1ccc(C(Cn2ccnc2)OCc2c(Cl)cccc2Cl)c(Cl)c1` (centres unmarked) [isoconazole], for which the “Annotation (hERG Active / Inactive)” value under setting [2] was “Inactive”.

For `CN(C)c1nc(N(C)C)nc(N(C)C)n1` [altretamine], the “Annotation (hERG Active / Inactive)” value under setting [1] is given as “Inactive”.

`c1coc(CNc2ncnc3[nH]cnc23)c1` [kinetin]: the “Annotation (hERG Active / Inactive)” value under setting [2] is recorded as “Inactive”.

As to `CC1(C)S[C@@H]2[C@H](NC(=O)[C@H](N)c3ccccc3)C(=O)N2[C@H]1C(=O)OC1OC(=O)c2ccccc21` (some centres unmarked) [talampicillin], the “Annotation (hERG inhibition class, Active/Inactive by IC50)” value under setting [3] is given as “Inactive”.

As for `CC1(C)O[C@@H]2C[C@H]3[C@@H]4CCC5=CC(=O)CC[C@]5(C)[C@@]4(F)[C@@H](O)C[C@]3(C)[C@]2(C(=O)CCl)O1` [halcinonide], the “Annotation (hERG Active / Inactive)” value under setting [2] is listed as “Inactive”.

Regarding `CC(C)(C)NC[C@H](O)COc1ccccc1C1CCCC1` [penbutolol], the “Annotation (hERG Active / Inactive)” value under setting [2] was “Inactive”.

In the case of `CN/C(=N/CCSCc1nc[nH]c1C)NC#N` [cimetidine], the “Annotation (hERG Active / Inactive)” value is given as “Inactive”.

As for `CCC1(c2ccccc2)C(=O)NCNC1=O` [primidone], under setting [2], the “Annotation (hERG Active / Inactive)” value is recorded as “Inactive”.

For `COc1cc(=O)n(C)c2c(OCC(O)C(C)(C)O)cccc12` (centres unmarked) [foliosidine], the “Annotation (hERG Active / Inactive)” value under setting [2] is reported as “Inactive”.

With `C[C@]12C[C@H](O)[C@H]3[C@@H](CCC4=CC(=O)CC[C@@]43C)[C@@H]1CC[C@@H]2C(=O)CO` [corticosterone], the “Annotation (hERG Active / Inactive)” value under setting [1] is recorded as “Inactive”.

For the compound `CCN1C(=O)NC(c2ccccc2)C1=O` (centres unmarked) [ethotoin], the “Annotation (hERG Active / Inactive)” value under setting [1] is recorded as “Inactive”.

As for `CN(C)CCC=C1c2ccccc2C=Cc2ccccc21` [cyclobenzaprine], the “Annotation (hERG Active / Inactive)” value under setting [1] is recorded as “Inactive”.

Regarding `COc1cc2c(cc1OC)-c1cc3ccc(OC)c(OC)c3c[n+]1CC2` [palmatine], the “Annotation (hERG Active / Inactive)” value is recorded as “Inactive”.

For `CC(C)N1CCN(c2ccc(OCC3COC(Cn4cncn4)(c4ccc(Cl)cc4Cl)O3)cc2)CC1` (centres unmarked) [terconazole], the “Annotation (hERG inhibition class, Active/Inactive by IC50)” value under setting [3] is given as “Inactive”.

For atovaquone, the “Annotation (hERG Active / Inactive)” value is “Inactive”.

As for `C=C1C2C[C@@]3([C@@H]1O)[C@@H](C[C@@H]2O)[C@@]12C4[C@@H]3C[C@@H]1[C@@](C)(CC[C@@H]2O)CN4CC` [napelline], the “Annotation (hERG Active / Inactive)” value under setting [2] was “Inactive”.

Consider `COc1ccc2c3c([nH]c2c1)C(C)=NCC3` [harmaline], for which the “Annotation (hERG Active / Inactive)” value under setting [2] is on record as “Inactive”.

As for `COCCc1ccc(OCC(O)CNC(C)C)cc1` (centres unmarked) [metoprolol], the “Annotation (hERG Active / Inactive)” value under setting [2] is “Inactive”.

With `O=C(O)c1cccnc1Nc1cccc(C(F)(F)F)c1` [niflumic acid], the “Annotation (hERG Active / Inactive)” value under setting [2] is reported as “Inactive”.

`C[C@H]1C[C@@H]2[C@H]([C@@H](O)C[C@@]3(C)[C@H]2CC[C@]3(O)C(=O)CO)[C@@]2(C)C=CC(=O)C=C12` [methylprednisolone]: the “Annotation (hERG Active / Inactive)” value under setting [2] is given as “Inactive”.

Consider `COc1ccc(C2CNC(=O)C2)cc1OC1CCCC1` (centres unmarked) [rolipram], for which, under setting [3], the “Annotation (hERG inhibition class, Active/Inactive by IC50)” value is “Inactive”.

On to `Nc1nc(O)c2ncn(COC(CO)CO)c2n1` [ganciclovir], for which the “Annotation (hERG Active / Inactive)” value under setting [2] is listed as “Inactive”.

In the case of `CNCCC(Oc1ccccc1OC)c1ccccc1` (centres unmarked) [nisoxetine], the “Annotation (hERG Active / Inactive)” value under setting [2] is recorded as “Active”.

Turning to `C[C@]12CC[C@H](O)C[C@H]1CC[C@@H]1[C@@H]2C[C@@H](O)[C@]2(C)[C@@H](C3=CC(=O)OC3)CC[C@]12O` [digoxigenin], the “Annotation (hERG Active / Inactive)” value under setting [1] was “Inactive”.
